According to patent US20250360108A1, “CATALYTIC INHIBITOR OF PROTEIN PHOSPHATASE 5 ACTIVATES THE EXTRINSIC APOPTOTIC PATHWAY BY DISRUPTING COMPLEX II” (The Research Foundation for the State University of New York, priority 2022, published 2025):

Assays:
786-O cells = assay: Induction of apoptosis by immunoblotting of apoptotic markers; assay type: cell-based, human
Description: Method Details Cell Transfection and Treatment: Cultured cells were split and then transfected the following day when about 40% confluent with each construct using Mirus TranslT-2020 (MirusBio) according to manufacturer's protocol. Cells were incubated at 37° C. and then extracted or collected for analysis after 24 hrs (HEK293) or 72 hrs (ccRCC cell lines). Short interfering RNA (siRNA) scramble control and PPP5C (PP5) targeting duplexes were purchased from OriGene (SKU: SR321403A, SR321403B, and SR321403C). Indicated cells were transiently transfected with the siRNA using Mirus TranslT-2020. For PP5 knock-down, either 30 nM of control siRNA or 10 nM of each PP5 siRNA duplex (A, B and C) were mixed prior to transfection. Cells were incubated at 37° C. for 72 hrs, then harvested for protein extraction. […] Cells were then harvested for protein extraction.
Protein Extraction, Immunoprecipitation and Immunoblotting: Protein extraction from mammalian cells was carried out using methods previously described. Cell lysates were quantified using 1× Bradford reagent (Biorad). For immunoprecipitation, cell lysates were incubated with anti-FLAG antibody conjugated beads (Sigma) or anti-HA conjugated beads (ThermoFisher Scientific) at 4° C. for 2 hrs. Endogenous IPs were achieved by incubating lysate with anti-PP5 antibody (Cell Signaling), anti-FADD antibody (Cell Signaling), or anti-RIPK1 antibody (Cell Signaling) overnight followed by protein G agarose (Invitrogen) at 4° C. for 2 hrs. Immunopellets were washed 4 times with fresh lysis buffer (20 mM Tris-HCl (pH 7.4), 100 mM NaCl, 1 mM MgCl2, 0.1% NP40, protease inhibitor cocktail (Roche), and PhosSTOP (Roche)) and eluted in 5× Laemmli buffer. Precipitated proteins were separated by SDS-PAGE and transferred to nitrocellulose membranes. Co-immunoprecipitated proteins or proteins from cell lysate were detected with antibodies recognizing FLAG, 6×-His (ThermoFisher Scientific), GAPDH (ENZO Life Sciences), Cdc37 (StressMarq), GR, phospho-GR (S211), PP5, caspase-3, cleaved caspase-3, caspase-8, cleaved caspase-8, cleaved caspase-7, cleaved-PARP, phospho-RIPK1 (S166), phospho-FADD (S194), PP2A-C, VHL (Cell Signaling), phospho-RIPK1 (S161) (Invitrogen), PP5 and phospho-Cdc37 (S13) (Abcam). Secondary antibodies raised against mouse and rabbit (Cell Signaling) were used (See Key Resources Table).

VHL-null ccRCC cells = assay: Flow cytometric cell death by propidium iodide staining; assay type: cell-based, human; conditions: 30 or 40 μM; A498 and 786-O versus Caki-1 and Caki-2
Description: Flow Cytometric Analysis: Fluorescence-activated cell sorting (FACS) analysis was performed according to the protocol in the Annexin V:FITC kit (Bio-Rad). In brief, cells were plated in 10 cm dish at 0.5×10^6 and incubated at 37° C. for 18 hrs. […] Cells were trypsinized, collected and washed once with 1× binding buffer (included in the kit). Propidium iodide was added, then the cells were immediately run on a Becton Dickinson LSRFortessa instrument (BD Biosciences). Data were analyzed using FlowJo software version 10.7.1 for Windows (BD Biosciences).

S194-FADD = assay: Phosphorylation of S194-FADD by immunoblot after IC261; assay type: cell-based, human; conditions: 786-O and A498 cells, indicated amounts, 24 hrs
Description: Method Details Cell Transfection and Treatment: Cultured cells were split and then transfected the following day when about 40% confluent with each construct using Mirus TranslT-2020 (MirusBio) according to manufacturer's protocol. Cells were incubated at 37° C. and then extracted or collected for analysis after 24 hrs (HEK293) or 72 hrs (ccRCC cell lines). Short interfering RNA (siRNA) scramble control and PPP5C (PP5) targeting duplexes were purchased from OriGene (SKU: SR321403A, SR321403B, and SR321403C). Indicated cells were transiently transfected with the siRNA using Mirus TranslT-2020. For PP5 knock-down, either 30 nM of control siRNA or 10 nM of each PP5 siRNA duplex (A, B and C) were mixed prior to transfection. […]
Protein Extraction, Immunoprecipitation and Immunoblotting: Protein extraction from mammalian cells was carried out using methods previously described. Cell lysates were quantified using 1× Bradford reagent (Biorad). […] Co-immunoprecipitated proteins or proteins from cell lysate were detected with antibodies recognizing FLAG, 6×-His (ThermoFisher Scientific), GAPDH (ENZO Life Sciences), Cdc37 (StressMarq), GR, phospho-GR (S211), PP5, caspase-3, cleaved caspase-3, caspase-8, cleaved caspase-8, cleaved caspase-7, cleaved-PARP, phospho-RIPK1 (S166), phospho-FADD (S194), PP2A-C, VHL (Cell Signaling), phospho-RIPK1 (S161) (Invitrogen), PP5 and phospho-Cdc37 (S13) (Abcam). […]

PP5 = target: T1, PP5 (Homo sapiens, UniProt P53041); conditions: cited from earlier work
T1 sequence (P53041 1-499): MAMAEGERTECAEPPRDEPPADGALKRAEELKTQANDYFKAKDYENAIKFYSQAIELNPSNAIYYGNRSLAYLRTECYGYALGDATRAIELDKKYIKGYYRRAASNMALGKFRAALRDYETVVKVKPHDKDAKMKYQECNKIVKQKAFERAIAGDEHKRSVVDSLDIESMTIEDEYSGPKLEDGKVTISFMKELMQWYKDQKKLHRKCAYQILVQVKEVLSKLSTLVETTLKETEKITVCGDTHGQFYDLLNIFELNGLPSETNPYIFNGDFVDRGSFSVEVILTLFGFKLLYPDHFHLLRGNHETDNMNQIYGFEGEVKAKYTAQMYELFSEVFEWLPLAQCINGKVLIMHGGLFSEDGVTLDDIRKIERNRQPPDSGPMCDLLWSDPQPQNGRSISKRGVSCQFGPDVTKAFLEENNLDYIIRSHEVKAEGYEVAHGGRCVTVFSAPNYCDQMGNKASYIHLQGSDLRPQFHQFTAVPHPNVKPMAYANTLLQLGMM

PP1 = conditions: cited from earlier work

**Q.** Which results are given for Cc1noc(C)c1S(=O)(=O)Nc1ccc(Cc2ccccc2)cc1 [Compound P053, (3,5-Dimethyl-4-isoxazolylsulfonyl)(p-benzylphenyl)amine]?
**A.** cleavage of caspase 3 and PARP (786-O cells; 10 μM, 24 hrs): increased cleavage; cleavage of caspase 8 versus caspase 9 (extrinsic apoptosis) (786-O cells; 10 μM, 24 hrs): cleavage of caspase 8 but not caspase 9; induction of apoptosis (cleaved PARP, cleaved caspase 8) (786-O cells; 10 μM, 24 hrs): had the ability to induce apoptosis; cell death (PI staining) (VHL-null ccRCC cells): selectively caused cell death

**Q.** What does the source list for COc1cc(OC)c(C=C2C(O)=Nc3ccccc32)c(OC)c1 [IC261, reference compound]?
**A.** S194-FADD phosphorylation (S194-FADD): increase in S194-FADD phosphorylation; induction of extrinsic apoptosis (apoptotic markers) (786-O cells; indicated amounts, 16 hrs): induced extrinsic apoptosis in a dose-dependent manner

**Q.** For CN1CCN(C(=O)C2C(C(=O)O)[C@H]3CC[C@@H]2O3)CC1 (some centres unmarked) [LB-100], which “inhibition of PP5” value (PP5) is on record?
**A.** inhibit

**Q.** What about the “inhibition of PP1” value (PP1) of the same compound?
**A.** inhibit
